The structures appear in SMILES notation.

The values that follow come from ChEMBL document CHEMBL3616401, “Thiophene-expanded guanosine analogues of Gemcitabine” (2015).

Holding throughout (assay type): functional
For test [1], the system named is T47D. The test can be described thus: Growth inhibition of human T47D cells assessed as cell growth at 15 ug/ml. The note with it: read-out: Activity.
The test system of test [2] is NCI-H522. The test can be described thus: Growth inhibition of human NCI-H522 cells assessed as cell growth at 15 ug/ml. The note with it: read-out: Activity.
A short description of test [3]: Growth inhibition of human LOXIMVI cells assessed as cell growth at 15 ug/ml. The note with it: LOX IMVI, read-out: Activity.
Test [4] is described as follows: Growth inhibition of human MOLT4 cells assessed as cell growth at 15 ug/ml. The note with it: MOLT-4, read-out: Activity.

`Nc1nc2c(sc3ncn([C@@H]4O[C@H](CO)[C@@H](O)C4(F)F)c32)c(=O)[nH]1`: the growth at 15 µg/mL turned out to be 10.5% in test [1], 34% in test [2], 25.6% in test [3] and 13.9% in test [4].
Regarding `CC(C)OC(=O)[C@H](C)NP(=O)(OC[C@H]1O[C@@H](n2cnc3sc4c(=O)[nH]c(N)nc4c32)C(F)(F)[C@@H]1OP(=O)(N[C@@H](C)C(=O)OC(C)C)Oc1ccccc1)Oc1ccccc1` (some centres not stated), the growth at 15 µg/mL was 87.2% in test [1], 77.7% in test [2], 102% in test [3] and 109% in test [4].
For `CC(C)OC(=O)[C@H](C)NP(=O)(OC[C@H]1O[C@@H](n2cnc3sc4c(=O)[nH]c(N)nc4c32)C(F)(F)[C@@H]1O)Oc1ccccc1` (some centres not stated), in that order: 64.5%, 65.6%, 74.1% and 94%.
